Results as given in US6031093A, “Solid salts of clavulanic acid” (SmithKline Beecham p.l.c., priority 1995, dated 2000).
Entries after “also recorded” stand apart in the source; their conditions may differ. Counter-ions that a name gives are not always drawn. Like-named read-outs stand apart in the source and are kept apart here. Each block holds one compound with its values, some of them ahead of it.

Experiments:
Stability in human blood = assay type: in vitro ADME
[1] = target: T1, β-lactamase produced by Escherichia coli JT4 (Escherichia coli, UniProt P62593); test: β-lactamase inhibition assay (Description 1); assay type: biochemical
T1 construct: the cell debris was removed by centrifugation and aliquots of the supernatant stored deep frozen; endogenous in cells; host or cells: Escherichia coli JT4 (R factor), ultrasonic extract

Staphylococcus = test: Antibacterial synergism, microtitre method (MIC); assay type: cell-based
Klebsiella aerogenes 62 = test: Antibacterial synergism, microtitre method (MIC); assay type: cell-based
Klebsiella aerogenes A = test: Antibacterial synergism, microtitre method (MIC); assay type: cell-based
[2] = tested on: Klebsiella aerogenes E 70; test: Antibacterial synergism, microtitre method (MIC); assay type: cell-based
[3] = tested on: Staphylococcus aureus (Russell); test: Antibacterial synergism, microtitre method (MIC); assay type: cell-based; settings: Table 6
Enterohacter cloacae = test: Antibacterial synergism, microtitre method (MIC); assay type: cell-based; settings: read-out: Minimum Inhibitory Concentration, agent alone
Enterobacter cleacea = test: Antibacterial spectrum, microtitre method (MIC); assay type: cell-based; settings: read-out: Minimum Inhibitory Concentration
[4] = Hydrolysis of ester to clavulanic acid in pH 7 buffer; assay type: physicochemical; settings: buffered to pH 7 (0.05M phosphate, 37° C., 1 mg/ml, 2 hours in Example 29)
Experimental: The reaction was followed by paper chromatography (bioautographic system). Using the butanol/ethanol/water system to follow the reaction over a period of 2 hours the zone of the methyl ester at Rf 0.79 decreased in size as the zone of clavulanic acid at Rf 0.12 increased.

Klebsiella acrogenes A = test: Growth inhibition and synergism; assay type: cell-based, Klebsiella aerogenes; settings: 5 μg/ml. of clavulanic acid also present
[5] = tested on: Staphylococcus aureus (Russell); test: Synergism of clavulanic acid methyl ester (M.I.C.); assay type: cell-based; settings: in the presence of 1.0 μg/ml. clavulanic acid methyl ester
[6] = +5 μg/ml benzyl ester of clavulanic acid
[7] = +5 μg/ml methyl ester of clavulanic acid

T1 sequence (P62593 24-286 limits assumed): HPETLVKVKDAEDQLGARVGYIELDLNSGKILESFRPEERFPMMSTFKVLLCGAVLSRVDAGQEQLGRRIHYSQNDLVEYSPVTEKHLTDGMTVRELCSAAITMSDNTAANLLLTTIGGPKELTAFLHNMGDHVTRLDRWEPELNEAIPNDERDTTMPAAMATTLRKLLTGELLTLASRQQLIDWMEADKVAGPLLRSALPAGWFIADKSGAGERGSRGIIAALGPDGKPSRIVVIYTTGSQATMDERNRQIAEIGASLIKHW

Compound: O=C(O)[C@H]1/C(=C/CO)O[C@@H]2CC(=O)N21 [clavulanic acid, Z-(2R,5R)-3-(β-hydroxyethylidene)-7-oxo-4-oxa-1-azabicyclo[3,2,0]heptane-2-carboxylic acid]
- stability in human blood (Stability in human blood): high stability
- mode of β-lactamase inhibition [1]: progressively and irreversibly inhibits

- MIC (Staphylococcus; alone, inoculum 0.5×10^-2, read-out: Minimum Inhibitory Concentration, agent alone): 250 µg/mL
- MIC of Ampicillin + 5 μg/ml of Benzyl Ester of clavulanic acid (Klebsiella aerogenes 62; [6]): 3.9 µg/mL
- MIC of Ampicillin + 5 μg/ml of Methyl Ester of clavulanic acid (Klebsiella aerogenes 62; [7]): 3.9 µg/mL
- MIC of Ampicillin + 5 μg/ml of Benzyl Ester of clavulanic acid (Klebsiella aerogenes A; [6]): 1.9 µg/mL
- MIC of Ampicillin + 5 μg/ml of Methyl Ester of clavulanic acid (Klebsiella aerogenes A; [7]): 1.9 µg/mL
- MIC of Ampicillin + 5 μg/ml of Benzyl Ester of clavulanic acid [2, 6]: 3.9 µg/mL
- MIC of Ampicillin + 5 μg/ml of Methyl Ester of clavulanic acid [2, 7]: 3.9 µg/mL
Compound: CC1(C)S[C@@H]2[C@H](NC(=O)[C@H](N)c3ccccc3)C(=O)N2[C@H]1C(=O)O [ampicillin]

Compound: O=C(O)[C@H]1/C(=C/CO)O[C@@H]2CC(=O)N21 [clavulanic acid sodium salt, 3-(β-hydroxyethylidine)-7-oxo-4-oxa-1-azabicyclo [3,2,0]heptane-2-carboxylic acid sodium salt]
- MIC (Staphylococcus; read-out: Minimum Inhibitory Concentration, agent alone): 62 µg/mL
- Minimum Inhibitory Concentration, agent alone [3]: 15 µg/mL
- MIC (Enterohacter cloacae): 62 µg/mL
- MIC (Enterobacter cleacea): 62 µg/mL

Compound: COC(=O)[C@H]1/C(=C/CO)O[C@@H]2CC(=O)N21 [clavulanic acid methyl ester]
- hydrolysis of ester to clavulanic acid [4]: slowly hydrolyse to clavulanic acid; also recorded: Slow conversion of the ester to clavulanic acid

Compound: CC1(C)S[C@@H]2[C@H](NC(=O)C(C(=O)O)c3ccccc3)C(=O)N2[C@H]1C(=O)O (some centres unmarked) [carbenicillin]
- concentration of penicillin inhibiting growth (Klebsiella acrogenes A): less than 12.5 μg/ml

Compound: O=C(Cc1cccs1)N[C@@H]1C(=O)N2C(C(=O)[O-])=C(C[n+]3ccccc3)CS[C@H]12 [cephaloridine]
- M.I.C. of antibiotic in presence of synergist [5]: < 0.03 µg/mL

Compound: CC1(C)S[C@@H]2[C@H](NC(=O)Cc3ccccc3)C(=O)N2[C@H]1C(=O)O [benzylpenicillin]
- concentration of penicillin inhibiting growth (Klebsiella acrogenes A): less than 12.5 μg/ml
